Measured values reported in ChEMBL document CHEMBL4330129 (Bioorg Med Chem, 2019).
≈ marks a conversion by molar mass, not a printed value.

How the values were obtained:
[1] = Lipophilicity, log D of the compound at pH 7.4 by chromatographic method; assay type: physicochemical; details: buffer
[2] = biological target: Keap1/Nrf2 (Homo sapiens, UniProt Q14145+Q16236); experiment: Binding affinity to FLAG/His-tagged Keap1 (unknown origin)/biotinylated full-length FLAG/His/Tev/Avi-tagged NRF2 (unknown origin) expressed in baculovirus infected Sf9 insect cells measured after 1 hr by TR-FRET assay
[3] = species on record: Homo sapiens; experiment: Activation of Keap1/Cul3/Nrf2 in NHBE cells assessed as induction of HO-1 gene expression at 10 uM after 24 hrs by RT-PCR analysis relative to SFN; assay type: cell-based
[4] = Binding affinity to FLAG/His-tagged Keap1 (unknown origin)/biotinylated full-length FLAG/His/Tev/Avi-tagged Cul3 (unknown origin) expressed in baculovirus infected Sf9 insect cells measured after 1 hr by TR-FRET assay; parameters: species or system Homo sapiens
[5] = Kinetic solubility of the compound at pH 7.4 by CLND method; assay type: physicochemical; details: buffer, read-out: Kinetic_solubility

Chain of Keap1/Nrf2 (Q16236 whole entry): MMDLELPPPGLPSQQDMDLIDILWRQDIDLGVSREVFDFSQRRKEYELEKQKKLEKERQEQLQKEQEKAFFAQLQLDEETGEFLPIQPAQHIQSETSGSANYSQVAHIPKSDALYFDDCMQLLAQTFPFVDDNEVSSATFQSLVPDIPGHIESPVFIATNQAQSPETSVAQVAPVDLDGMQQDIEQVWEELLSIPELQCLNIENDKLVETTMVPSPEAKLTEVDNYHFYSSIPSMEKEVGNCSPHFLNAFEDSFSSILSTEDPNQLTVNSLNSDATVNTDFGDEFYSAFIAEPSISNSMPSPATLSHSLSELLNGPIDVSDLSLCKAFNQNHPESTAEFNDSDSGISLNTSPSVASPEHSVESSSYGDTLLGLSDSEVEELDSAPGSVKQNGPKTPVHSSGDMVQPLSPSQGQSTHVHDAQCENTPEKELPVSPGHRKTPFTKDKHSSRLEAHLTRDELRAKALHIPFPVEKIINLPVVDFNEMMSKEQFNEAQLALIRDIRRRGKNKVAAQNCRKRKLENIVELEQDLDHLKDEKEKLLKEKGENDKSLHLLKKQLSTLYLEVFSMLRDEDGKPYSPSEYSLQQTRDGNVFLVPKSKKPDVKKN
Chain of Keap1/Nrf2 (Q14145 whole entry): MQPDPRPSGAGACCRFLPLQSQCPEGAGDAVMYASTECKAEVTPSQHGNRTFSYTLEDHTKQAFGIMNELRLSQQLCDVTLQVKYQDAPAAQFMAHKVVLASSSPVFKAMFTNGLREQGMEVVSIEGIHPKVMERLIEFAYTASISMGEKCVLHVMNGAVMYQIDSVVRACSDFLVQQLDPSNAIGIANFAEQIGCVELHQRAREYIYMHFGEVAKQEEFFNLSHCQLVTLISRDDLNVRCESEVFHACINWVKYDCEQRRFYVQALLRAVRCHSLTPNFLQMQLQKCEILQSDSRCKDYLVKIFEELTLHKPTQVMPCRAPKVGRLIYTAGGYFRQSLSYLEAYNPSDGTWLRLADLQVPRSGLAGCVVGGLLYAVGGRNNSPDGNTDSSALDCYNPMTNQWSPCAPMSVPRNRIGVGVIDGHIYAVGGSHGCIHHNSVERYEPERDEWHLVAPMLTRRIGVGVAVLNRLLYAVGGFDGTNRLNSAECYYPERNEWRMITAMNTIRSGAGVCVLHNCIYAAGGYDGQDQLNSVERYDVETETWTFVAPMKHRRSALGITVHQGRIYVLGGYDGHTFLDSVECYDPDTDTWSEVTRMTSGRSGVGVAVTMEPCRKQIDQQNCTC

Row | SMILES | chromatographic logD [1] | IC50 [2] [µM] | fold change (FC) [3] | pIC50 [4] | solubility kinetic [5] [µM]
1 | O=C(NCCCCN=C=S)Nc1cccnc1 | 2.79 | 39.8 | 13.6 | 4.5 | ≥ 428
2 | C[S+]([O-])CCCCNC(=S)SCc1cccc([N+](=O)[O-])c1 (stereo not given) | 3.81 | > 100 | 0.39 | < 4 | 372 (≈ 129 µg/mL)
3 | CN1CCC(SC(=S)NCCCCNC(=O)CC2CCCC2)CC1 | 3 | 50.1 | 31.3 | 4.5 | ≥ 256
4 | CC(C)(C)OC(=O)N1CCC(SC(=O)NCCCCNC(=S)SC2CCN(C(=O)OC(C)(C)C)CC2)CC1 | 7.89 | > 100 | 4.08 | < 4 | 9 (≈ 5.32 µg/mL)
5 | CN1CCC(SC(=S)NCCCCNC(=O)OCc2ccccc2Cl)CC1 | 4.06 | 3.98 | 6.26 | 5.3 | 280 (≈ 120 µg/mL)
6 | CN(C)CC[S+]([O-])CCCCN=C=S (stereo not given) | 1.47 | > 100 | 0.49 | < 4 | ≥ 219
7 | O=C(NCCCCN=C=S)Nc1ccc2nccnc2c1 | 3.13 | 15.8 | 13.2 | 5.1 | ≥ 356
8 | CN1CCC(SC(=S)NCCCCNC(=O)Oc2ccccc2)CC1 | 0.9 | 25.1 | 5.52 | 4.8 | ≥ 410
9 | C[S+]([O-])CCCCNC(=S)SC1CCNCC1.O=C(O)C(F)(F)F (stereo not given) | 0.22 | > 100 | 0.34 | < 4 | 255
10 | CC(C)(C)OC(=O)N1CCC(SC(=S)NCCCCNC(=O)OCc2ccccn2)CC1 | 5.67 | > 100 | 1.47 | < 4 | 80 (≈ 38.6 µg/mL)
11 | C[S+]([O-])CCCCNC(=S)SCCCO (stereo not given) | 0.68 | 25.1 | 0.24 | < 4 | ≥ 467
12 | CC(C)(C)OC(=O)N1CCC(SC(=S)NCCCCNC(=O)OCc2ccccc2Cl)CC1 | 7.72 | 2.51 | 40.3 | 4.8 | 2 (≈ 1.03 µg/mL)
13 | O=C(NCCCCN=C=S)OCc1ccncc1 | 3.5 | 39.8 | 13.3 | 4.6 | 354 (≈ 93.9 µg/mL)
14 | [O-][S+](CCCCN=C=S)c1ccccc1 (stereo not given) | 4.11 | 50.1 | 5.99 | 4.3 | 213 (≈ 51 µg/mL)
15 | CN1CCC(SC(=S)NCCCCNC(=O)OCc2ccccn2)CC1 | 1.83 | 39.8 | 11.4 | 4.6 | ≥ 385
16 | O=S(=O)(/C=C(\CO)CN1CCC(CN=C=S)CC1)c1ccccc1 | 7.09 | 25.1 | 25.3 | 5.6 | 187 (≈ 68.5 µg/mL)
17 | S=C=NCCN1CCSCC1 | 4.93 | > 100 | 0.21 | < 4 | ≥ 367
18 | Cn1cc(CCN=C=S)c2ccccc21 | 7.23 | 10 | 0.04 | 5.2 | 38 (≈ 8.22 µg/mL)
19 | Cc1ccccc1S(=O)(=O)CCCCN=C=S | 5.52 | 31.6 | 0.67 | 5 | 261 (≈ 70.3 µg/mL)

Row | SMILES | chromatographic logD [1] | IC50 [2] [µM] | fold change (FC) [3] | pIC50 [4] | solubility kinetic [5] [µM]
20 | CNC(=O)NCCCCN=C=S | 2 | 50.1 | 1.04 | 4.1 | ≥ 436
21 | O=S1(=O)CCN(CCN=C=S)CC1 | 2.33 | > 100 | 0.19 | < 4 | ≥ 274
22 | O=C(CCc1ccccc1)NCCCCN=C=S | 2.59 | 25.1 | 9.84 | 4.4 | 337 (≈ 88.4 µg/mL)
23 | CC(C)(C)OC(=O)N1CCC(SC(=S)NCCCCNC(=O)NCc2ccccc2)CC1 | 6.05 | 7.94 | 18.6 | 4.7 | 34 (≈ 16.3 µg/mL)
24 | Cl.O=C(NCCCCNC(=S)SC1CCNCC1)NC1CCCC1 | 1.52 | 50.1 | 3.46 | 4.6 | ≥ 323
25 | CC(=O)CCCCN=C=S | 4.21 | > 100 | 0.9 | 4.1 | 206 (≈ 32.4 µg/mL)
26 | O=S1(=O)CCC(CN=C=S)C1 (stereo not given) | 1.82 | > 100 | 0.37 | 4.4 | ≥ 639
27 | O=C(NCCCCN=C=S)c1ccno1 | 3.27 | 63.1 | 2.65 | 4.2 | ≥ 473
28 | CC(C)(C)OC(=O)N1CCC(SC(=S)NCCCCNC(=O)Nc2ccc3c(c2)OCO3)CC1 | 6.04 | 50.1 | 55.6 | 4.4 | 17 (≈ 8.68 µg/mL)
29 | O=C(NCCCCN=C=S)OCc1ccccc1Cl | 6.35 | 5.01 | 3.21 | 5.2 | 73 (≈ 21.8 µg/mL)
30 | [O-][S+](CCCCN=C=S)c1ccncc1 (stereo not given) | 2.34 to 3.5 | 15.8 to 25.1 | 15.8 to 15.9 | 4.4 | 201 to 224 (≈ 48.3 to 53.8 µg/mL)
31 | CC(C)(C)OC(=O)N1CCC(SC(=S)NCCCCNC(=O)NC2CCCC2)CC1 | 6.1 | > 100 | 27.3 | 4.4 | 53 (≈ 24.3 µg/mL)
32 | C[S+]([O-])CCCCNC(=S)SCCNC(=O)OC(C)(C)C (stereo not given) | 3.12 | > 100 | 0.58 | < 4 | ≥ 432
33 | CN1CCC(SC(=S)NCCCCNC(=O)Nc2ccc3c(c2)OCO3)CC1 | 2.46 | 20 | 25.1 | 5.1 | ≥ 358
34 | O=C(CCCCN=C=S)NCc1ccccc1 | 4.59 | 20 | 28 | 4.7 | ≥ 418
35 | CC(=O)N(C)CC[S+]([O-])CCCCN=C=S (stereo not given) | 1.51 | > 100 | 0.29 | < 4 | ≥ 110
36 | O=S(=O)(CC1(N2CCC(CN=C=S)C2)COC1)c1ccccc1 (stereo not given) | 5.02 | 50.1 | 8.15 | 4.7 | 242 (≈ 85.3 µg/mL)
37 | CN1CCC(SC(=S)NCCCCS(=O)(=O)c2ccncc2)CC1 | 1.56 | 100 | 2 | 4.5 | ≥ 419
